{
  "source": "patent US12630544B2",
  "about": "“Compound, α-synuclein aggregate binder, and use thereof” (NATIONAL INSTITUTES FOR QUANTUM SCIENCE AND TECHNOLOGY, priority 2020, dated 2026)",
  "key": {"[1]": {"assay": "Ex vivo imaging (autoradiography) of brain of physiological saline-injected mouse", "assay_type": "in vivo", "settings": "intravenous, brain collected 40 minutes after administration", "description": "A physiological saline-injected mouse was anesthetized with 1.5% (v/v) isoflurane. Then, [^18F]SPAL-T-06 (28.9 MBq) was intravenously injected into the physiological saline-injected mouse. Forty minutes after the administration of [^18F]SPAL-T-06, the brain was collected and frozen. In a cryostat (HM560), frozen coronal sections each having a thickness of 20 μm and respectively including positions at 0.50 mm, −0.46 mm, −1.94 mm, −3.16 mm, and −6.64 mm from the bregma were prepared. Each section was air-dried, and then placed in contact with an imaging plate for 15 minutes in a cassette. Thereafter, autoradiographs were obtained with use of BAS-5000 (Fuji Film)."}, "α-synuclein aggregates [2]": {"test_system": "α-synuclein aggregates", "assay": "In vivo PET imaging of α-synuclein fibril-inoculated marmoset brain", "settings": "intravenous injection"}, "α-synuclein aggregates [3]": {"target": "T1, α-synuclein aggregates (Mus musculus, UniProt O55042)", "T1 construct": "from tissue; host or cells: brain of C57/BL/6 mouse inoculated in the striatum with recombinant (E. coli) mouse α-synuclein fibrils; sections or living animal", "assay": "In vivo PET imaging of mouse brain (α-synuclein fibril-inoculated mouse vs physiological saline-injected mouse)", "settings": "α-synuclein fibril-inoculated model mouse, intravenous injection", "description": "First, mouse α-synuclein was expressed in and extracted from E. coli as a recombinant protein, and then incubated in vitro to form insoluble α-synuclein aggregates. The α-synuclein aggregates were then inoculated into the striatum of a mouse. […] Note that the inoculation of the α-synuclein aggregates into the striatum of the mouse was carried out in the following manner. First, hair on the head of a 9-week-old C57/BL/6 male mouse which had been anesthetized with 1.5% (v/v) isoflurane was removed, and the scalp was disinfected with isodine, followed by application of xylocaine and incision in the scalp to expose the skull. Then, a hole was drilled in the skull at a position of 0.05 mm posterior to the bregma and 2 mm lateral to the midline, and 3 μl of an α-synuclein fibril solution (mouse α-synuclein fibril (4 mg/ml) in saline) was injected into a position […] ventral to the brain surface with use of a glass pipette. The scalp was then returned and sutured.\nPET scanning was carried out with use of a micro PET Focus 220 animal scanner (Siemens Medical Solutions), which provided 95 slices each having a thickness of 0.851 mm (center thickness), a […]. Before the scanning, an α-synuclein fibril-inoculated mouse and a physiological saline-injected mouse (control) were each anesthetized with 1.5% (v/v) isoflurane. […]"}, "[4]": {"target": "T2, homogenate of the brain of the DLB patient which was rich in α-synuclein lesions (Homo sapiens, UniProt P37840)", "T2 construct": "α-synuclein aggregates formed in the brain of the DLB patient; from tissue; host or cells: post-mortem human brain: amygdala of DLB patient (sections or homogenate); cerebellum of MSA patient", "assay": "In vitro binding test, homogenate of the brain of the DLB patient", "description": "(§1) Fresh frozen tissue from the amygdala in the brain of a DLB patient and fresh frozen tissue from the frontal cortex in the brain of an AD patient were used. To each fresh frozen brain tissue, zirconia beads (ZB-20, TOMY) and a buffer solution which was 10 times the wet weight of the tissue were added. A mixture thus obtained was smashed with use of Micro Smash (MS-100R, TOMY) and then stored at −80° C. A homogenate of the brain of the DLB patient or a homogenate of the brain of the AD patient, [^18F]SPAL-T-06 (final concentration: 5 nM), and non-labeled SPAL-T-06 (final concentration: 0.01 nM to 1 μM) were mixed into a Tris-HCl buffer solution (containing 20% ethanol). Incubation was carried out at room temperature for 30 minutes, and then B/F separation (B: bound ligand, F: free ligand) was carried out by suction filtration and washing. Thereafter, radioactivity captured on a glass filter was measured with use of a gamma counter (2480WIZARD2, ParkinElmer). With regard to the concentration of each non-labeled SPAL-T-06, a test was carried out in triplicate. Results were analyzed with use of Prism 6J (GraphPad), displacement curves of the tested compounds were obtained, and then IC50 of each was calculated."}, "[5]": {"target": "homogenate of the brain of the AD patient (tau aggregates or amyloid β aggregates)", "assay": "In vitro binding test, homogenate of the brain of the AD patient", "set-up": "species or system human", "settings": "[18F]SPAL-T-06 5 nM displaced by non-labeled SPAL-T-06 0.01 nM to 1 μM; frontal cortex; room temperature 30 minutes", "description": "as §1"}, "[6]": {"target": "T3, lesions caused by phosphorylated α-synuclein (Homo sapiens, UniProt P37840)", "T3 construct": "α-synuclein aggregates formed in the brain of the DLB patient; from tissue; host or cells: post-mortem human brain: amygdala of DLB patient (sections or homogenate); cerebellum of MSA patient", "assay": "In vitro autoradiography of human brain sections (DLB, MSA, healthy subject)", "assay_type": "binding", "settings": "10 nM", "text": "Postmortem human brains were obtained in autopsies carried out with respect to a DLB patient, a multiple system atrophy (MSA) patient, and a healthy subject. In a cryostat (HM560, Carl Zeiss), frozen tissue from the DLB patient and frozen tissue from the healthy subject were sliced into sections each having a thickness of 20 μm. Brain tissue from the MSA patient was fixed in 10% neutral buffered formalin, embedded in a paraffin block, and sliced into sections each having a thickness of 6 μm.\nPostfixed fresh frozen sections of amygdala tissue from the brain of the DLB patient and the frontal cortex tissue from the brain of the healthy subject and deparaffinized sections of formalin-fixed paraffin-embedded cerebellum tissue from the brain of the MSA patient were used. Each brain tissue section and [^18F]SPAL-T-06 (final concentration: 10 nM) were incubated in 50 mM Tris-HCl containing 20% ethanol at room temperature for 1 hour. In order to detect specific binding, the brain tissue section was also incubated in 50 mM Tris-HCl (containing 20% ethanol) containing [^18F]SPAL-T-06 (final concentration: 10 nM) and non-labeled SPAL-T-06 (final concentration: 10 μM). Subsequently, the section was washed with 50 mM Tris-HCl (containing 20% EtOH) at 4° C. for 2 minutes. This washing was carried out twice. Thereafter, the section was rinsed with MilliQ. […]"}},
  "data": [
    {"smiles": "CNc1cnc(C#C/C=C/c2nc3ccc(OCC(O)C[18F])cc3s2)cn1", "note": "(centres unmarked) [[^18F]SPAL-T-06, [^18F]-(E)-1-fluoro-3-((2-(4-(5-(methylamino)pyrazin-2-yl)but-1-en-3-yn-1-yl)benzo[d]thiazol-6-yl)oxy)propan-2-ol]", "values": [
      {"measurement": "nonspecific accumulation in the white matter area (ex vivo autoradiography)", "setting": "[1]", "value": "not seen"},
      {"measurement": "accumulation in the caudate nucleus rich in α-synuclein lesions (PET)", "setting": "α-synuclein aggregates [2]", "value": "clear accumulation"},
      {"measurement": "accumulation in striatum and cerebral cortex rich in α-synuclein lesions (PET)", "setting": "α-synuclein aggregates [3]", "value": "clear accumulation"},
      {"measurement": "binding selectivity with respect to α-synuclein aggregates versus tau or amyloid β aggregates (homogenate binding)", "setting": "[4]; DLB versus AD brain homogenate", "value": "high binding selectivity"},
      {"measurement": "IC50", "setting": "[4]; [18F]SPAL-T-06 5 nM displaced by non-labeled SPAL-T-06 0.01 nM to 1 μM, amygdala, room temperature 30 minutes", "value": 1.58, "unit": "nM"},
      {"measurement": "IC50", "setting": "[5]", "value": 10.9, "unit": "nM"},
      {"measurement": "binding to areas rich in lesions caused by phosphorylated α-synuclein (autoradiography)", "setting": "[6]; DLB amygdala and MSA cerebellum sections, 1 hour", "value": "bound to areas in the brains of the DLB patient and the MSA patient which were rich in lesions caused by phosphorylated α-synuclein"},
      {"measurement": "non-specific binding in gray matter and white matter of healthy subject frontal cortex (autoradiography)", "setting": "[6]; section of frontal cortex of healthy subject", "value": "hardly observed"}
    ]}
  ]
}
